Source: patent US12357695B2, “Peptides and nanoparticles for intracellular delivery of molecules” (AADIGEN, LLC, priority 2019, dated 2025)
“Also recorded” adds a separate entry of the source. Square brackets hold non-standard residues; d marks the D form. Ava = NCCCCC(=O)O

How the values were obtained:
293T cells = assay: Cellular delivery of pGL4 plasmid DNA expressing Luciferase, luciferase expression at 72 hrs; type: cell-based; settings: pGL4 plasmid; for reduction of efficiency / luciferase expression in the presence of serum: complexes incubated 3 hrs in 25% serum prior transfection; for reduction of efficiency / luciferase expression in heparan sulfate: complexes incubated 3 hrs with heparan sulfate prior transfection
Description: FIGS. 2A-2C show luciferase expression in 293T cells treated with ADGN-peptide/pGL4 plasmid DNA complexes. 293T cells cultured in 48 well plates were transfected with ADGN-peptide nanoparticles. ADGN-100, ADGN-106, ADGN-100RI, ADGN-106RI, ADGN-100 Stearyl, ADGN-Hydro1, ADGN-Hydro2, ADGN-Hydro3, ADGN-Hydro4, ADGN-Hydro5, and ADGN-Hydro6 containing 0.17 μg pGL4 plasmid DNA were formed in sterile water, diluted in sterile water containing 5% Sucrose. ADGN-peptide nanoparticles were evaluated prior (FIG. 2A) and after filtration with 0.45 μm PES filters (FIG. 2B). FIG. 2C impact of peGylated ADGN-100 on the transfection efficiency. pGL4 luc plasmid (0.15 μg) were associated to ADGN-100 solution containing 5 to 50% of ADGN-100-PEG or to ADGN-100PEG. ADGN/pGL4 plasmid DNA complexes were incubated for 3 hrs in the presence of either 25% serum or heparan sulfate prior transfection. Luciferase expression was monitored 72 hours post transfection and results were reported as RLU (luminescence):mg of protein.
Complex formation with plasmid DNA. The following protocols were used for the transfection of 2-5 106 Cells or Cells at confluency of about 70-80% cultured in 24 well plates. ADGN peptide/plasmid DNA pGL4 particles were prepared at a 20:1 molar ratio of ADGN-Peptide/pGL4. using (0.2 μg). PGL4 plasmid (0.15 μg) was diluted in 20 μl of sterile water (GIBCO) at room temperature. 10 μl Final Peptide Solution was added to obtain a total volume of 20 μl. The volume was adjusted to 50 μl with sterile water and was mixed gently with vortex 1 min low speed and incubated 30 min at room temperature. Then the volume was made up to 100 μl by adding sterile water containing 5% sucrose, and the solution was mixed gently with vortex 1 min low speed and incubate 5 min at 37° C. and then was proceeded to cell transfection.
Transfection protocol. Protocol is reported for 24 well plate format. Cells were cultured in Dulbecco's Modified Eagle's Medium (DMEM), supplemented with 2 mM glutamine, 1% antibiotics (streptomycin 10,000 μg/mL, penicillin, 10,000 IU/mL) and 10% (w/v) foetal calf serum (FCS), at 37° C. in a humidified atmosphere containing 5% CO2. 24 well plates seeded with 150,000 cells the day prior to transfection were grown to 50-60% confluence and set up to be at about 70% confluences at the time of transfection. Before transfection, cells were washed twice with DMEM. Cells were then overlaid with 0.1 ml of ADGN-peptide/cargo complex solution containing 0.25 μg mRNA, 0.15 μg plasmid DNA or 10-25 nM siRNA, mixed gently, and incubated for 10 min at 37° C. 0.2 mL of fresh DMEM, were added and cells were incubated for 20 min at 37° C. 1 mL of complete DMEM containing 15% FCS were then added in order to reach a final FCS concentration of 10%, without removing the overlay of ADGN-peptide/cargo complexes. Cells were returned to the incubator (37° C., 5% CO2) and 72 hrs post transfection.
ADGN-peptides were evaluated for cellular delivery of pGL4 plasmid DNA expressing Luciferase in 293T cells. Luc pGL4 plasmid (0.15 μg) in sterile water (GIBCO) were mixed with ADGN-100, ADGN-100RI, ADGN-106, ADGN-106RI, ADGN-100 Stearyl, ADGN-100Hydro1, ADGN-100Hydro2, ADGN-100Hydro4, ADGN-100Hydro3, ADGN-100Hydro5 and ADGN-100Hydro6. ADGN-peptide/mRNA complexes were filtered with 0.45 μm PES filter. In order to evaluate the stability of the ADGN/pGL4 plasmid complexes in high serum and cell culture conditions, the complexes were incubated for 3 hrs in the presence of either 25% serum or heparan sulfate prior transfection, then 293T cells were transfected and Luciferase expression was monitored at 72 hrs.

mice or rat models = assay: Summary of cargo delivery to targeted organ (Table 1); type: in vivo; settings: cargoes and route (IV, IM, SQ, NB) per peptide as listed in Table 1
Excerpt: Table 1 lists a summary of cell-penetrating peptides that have been proven successful in delivering various cargo molecules to on or more targeted organ (e.g., by intravenous (IV), intramuscular (IM), or subcutaneous (SQ) administration, or intratraccheal instillation or nebulization (NB)) in mice or rat models.

Substance	reduction of efficiency / luciferase expression in the presence of serum (293T cells)	reduction of efficiency / luciferase expression in heparan sulfate (293T cells)	Targeted Organ (mice or rat models)
Ac-GYVS-Ava-KWRSALWRWRLWRVRSWSR-NH2 (Ac-GYVS[Ava]KWRSALWRWRLWRVRSWSR-NH2; SMILES CC(=O)NCC(=O)N[C@@H](Cc1ccc(O)cc1)C(=O)N[C@H](C(=O)N[C@@H](CO)C(=O)NCCCCC(=O)N[C@@H](CCCCN)C(=O)N[C@@H](Cc1c[nH]c2ccccc12)C(=O)N[C@@H](CCCNC(=N)N)C(=O)N[C@@H](CO)C(=O)N[C@@H](C)C(=O)N[C@@H](CC(C)C)C(=O)N[C@@H](Cc1c[nH]c2ccccc12)C(=O)N[C@@H](CCCNC(=N)N)C(=O)N[C@@H](Cc1c[nH]c2ccccc12)C(=O)N[C@@H](CCCNC(=N)N)C(=O)N[C@@H](CC(C)C)C(=O)N[C@@H](Cc1c[nH]c2ccccc12)C(=O)N[C@@H](CCCNC(=N)N)C(=O)N[C@H](C(=O)N[C@@H](CCCNC(=N)N)C(=O)N[C@@H](CO)C(=O)N[C@@H](Cc1c[nH]c2ccccc12)C(=O)N[C@@H](CO)C(=O)N[C@@H](CCCNC(=N)N)C(N)=O)C(C)C)C(C)C) [ADGN-100 hydro-4]	do not significantly improved transfection	do not significantly improved transfection	Liver/Lung/; also recorded: Kidney/Spleen
Ac-YIGSR-Ava-KWRSALWRWRLWRVRSWSR-NH2 (Ac-YIGSR[Ava]KWRSALWRWRLWRVRSWSR-NH2; SMILES CC[C@H](C)[C@H](NC(=O)[C@H](Cc1ccc(O)cc1)NC(C)=O)C(=O)NCC(=O)N[C@@H](CO)C(=O)N[C@@H](CCCNC(=N)N)C(=O)NCCCCC(=O)N[C@@H](CCCCN)C(=O)N[C@@H](Cc1c[nH]c2ccccc12)C(=O)N[C@@H](CCCNC(=N)N)C(=O)N[C@@H](CO)C(=O)N[C@@H](C)C(=O)N[C@@H](CC(C)C)C(=O)N[C@@H](Cc1c[nH]c2ccccc12)C(=O)N[C@@H](CCCNC(=N)N)C(=O)N[C@@H](Cc1c[nH]c2ccccc12)C(=O)N[C@@H](CCCNC(=N)N)C(=O)N[C@@H](CC(C)C)C(=O)N[C@@H](Cc1c[nH]c2ccccc12)C(=O)N[C@@H](CCCNC(=N)N)C(=O)N[C@H](C(=O)N[C@@H](CCCNC(=N)N)C(=O)N[C@@H](CO)C(=O)N[C@@H](Cc1c[nH]c2ccccc12)C(=O)N[C@@H](CO)C(=O)N[C@@H](CCCNC(=N)N)C(N)=O)C(C)C) [ADGN-100-Hydro-3]	do not significantly improved transfection	do not significantly improved transfection	Tumor/Lung
